Columns and labels:
[1] = test system: BM erythroblast subset II; assay: RNA sequencing / RT-PCR of BM erythroblast subset II of treated mice; format: in vivo, mouse
Experimental: Total RNA was isolated by using the RNeasy kit (Qiagen) from the sorted sample of bone marrow subset II erythroblasts (PBS; n=4, CLEU; n=4). The quality of the isolated RNA ([…]) was checked using a 2100 bioanalyzer (Agilent), and 250 ng of the RNA was used as input for library preparation in accordance with the manufacturer's instructions using the TruSeq Stranded mRNA Library Prep Kit (Illumina). High-throughput sequencing (51 bp, single-ended) was performed using Hiseq2500 Rapid mode v2 (Illumina). Sequenced reads were mapped to the reference mouse genome (mm9) by using bowtie2 version 2.2.5 and tophat version 2.1.0, and then the abundances of transcripts were estimated by using cufflinks version 2.2.1. Gene expression levels were normalized to the average of fragments per kilobase of transcript per million mapped reads (FPKM) value. Individually expressed genes with FPKM>10 and CV<0.5 (under at least one of the two conditions) were used for further analysis (log2 FC<−0.5 or log2 FC>0.5, P<0.05 within each condition).
For the purpose of elucidating the mechanism of the maturation of erythroblasts induced by CLEU treatment, RNA sequencing analysis of BM erythroblast subset II was performed. […] According to previous reports which had shown the contributory role of CD163 and Apoe in erythropoiesis, up-regulation of CD163 and/or Apoe is necessary for proper use of heme and/or lipid membrane synthesis during the maturation of erythroblasts. […] Considering the fact that abnormalities in globin genes cause the maturation defects in erythroblasts in disorders such as thalassemia, up-regulation of these genes, on the other hand, could be the driving force for the final maturation stage of erythroblasts.

[2] = test system: erythropoietin; assay: Serum erythropoietin levels determined by ELISA; format: in vivo, mouse; conditions: CLEU 50 mg/body i.p., vs PBS
Excerpt: FIG. 2 is the experimental result showing that a significant erythropoiesis was induced independently of erythropoietin as a result of SAM reduction by CLEU. Panel A: Abundance of SAM in cells selected from bone marrow subset II treated with PBS or CLEU (Day 2). Panel B: Peripheral blood hemoglobin concentration on the days indicated after PBS or CLEU treatment. Panel C: Total bone marrow cells harvested from the left and right femur and tibiae of PBS or CLEU treated mouse (Day 2). Panel D: Representative image (photograph) of tibia of PBS or CLEU treated mouse (Day 2). Panels E and F: Matured bone marrow cells from each group analyzed by flow cytometry (Day 2). Representative results of flow cytometric analysis are shown in Panel E. Cumulative cell numbers in each of the indicated groups are shown in F. Red blood cell (Ter119^+ Gr1^− B220^− CD4^− CD8^−), myeloid (Gr1^+ Ter119^− B220^− CD4^− CD8^−), and B cells (B220^+ Ter119^− Gr1^− CD4^− CD8^−). Panels G and H: Numbers of bone marrow erythroblasts in each of the subsets analyzed by flow cytometry (Day 2). […] Panel L: Serum erythropoietin levels determined by ELISA. […] For measuring complete blood count of peripheral blood, peripheral blood was collected from facial veins and counted by use of an automated animal blood cell counter (microsemi LC-662). […]

[3] = CLEU, subset II, Day 2, RT-PCR normalized to Actb

With `NC1(C(=O)O)CCCC1` [CLEU, cycloleucine] the “number of genes identified as significantly up-regulated” value ([1]; CLEU, BM erythroblast subset II, Day 2, RNA sequencing, vs PBS) was 72 genes, the “expression of Gata1, Tal1, and Klf1” value ([1]; CLEU, BM erythroblast subset II, Day 2, vs PBS) was “significantly down-regulated” and the “expression of Myb, Cited2 and H1f0” value [1, 3] was “significantly up-regulated”. The “expression of hemoglobin-related genes, CD163 and Apoe (validation analysis)” value [1, 3] was “significantly up-regulated”, the “expression levels of several histone methyltransferase” value ([1]; CLEU, subset II, RNA sequencing) was “significantly down-regulated” and the “expression of globin genes” value ([1]; CLEU-treated erythroblasts, subset II, Day 2) was “most heavily expressed”. For the same compound, the serum erythropoietin levels [2] was “significantly down-regulated”.

Source: patent US11554124B2, “Hematopoiesis-enhancing agent” (priority 2018, dated 2023)
